Data published in patent US20070003636A1, “Statins (HMG-COA reductase inhibitors) as a novel type of immunomodulator, immunosuppressor and anti-inflammatory agent” (priority 2003, published 2007).

Key:
[1] = system: MHC class II; conditions: ECs, IFN-γ 500 U/ml 48 hrs; compared among Atorvastatin, Lovastatin, Pravastatin
Procedure: Cell isolation and culture. […] Flow cytometry. […] Data were analyzed using […] software (Becton Dickinson).

[2] = system: CD40; assay: IFN-γ induced CD40 expression on vascular endothelial cells (Western blot); type: cell-based, human; conditions: ECs; for CD40 expression with co-treatment by IFN-γ and statin: IFN-γ 500 U/ml, 24 hrs, Western blotting
From the text: Cell isolation and culture. […] Human vascular smooth muscle (SMCs) cells were isolated from human saphenous veins and mammary arteries by explant outgrowth, and cultured in DMEM (BioWhittaker) supplemented with 1% L-glutamine (BioWhittaker), 1% penicillin/streptomycin, and 10% FCS. Both cell types were subcultured following trypsinization (0.5% trypsin (Worthington Biochemicals)/0.2% EDTA (EM Science)) in P100-culture dishes (Becton Dickinson).
Western blots analysis. Cells were harvested in ice-cold RIPA solubilization buffer, and total amounts of protein were determined using a bicinchoninic acid quantification assay (Pierce, Rockford, Ill.). Twenty μg of total protein/lane were separated by SDS/PAGE under reducing conditions and blotted to polyvinylidene difluoride membranes (Millipore Corp., Bedford, Mass.) using a semidry blotting apparatus (Bio-Rad, Hercules, Calif.). Blots were blocked overnight in 5% defatted dry milk/PBS/0.1% Tween, and then incubated for 1 hour at room temperature with primary antibody (1:40) (rabbit […] anti-CD40 Santa Cruz, San Diego, Calif.), or mouse monoclonal anti-human […] (1:5000) (Pharmingen) for control of loading. This was followed by a 1 hour incubation with secondary peroxidase-conjugated antibody (1:10,000), (Jackson Immunoresearch, West Grove, Pa.). […] Immunoreactivity was detected using the enhanced chemiluminescence detection method according to the manufacturer's instructions. (Amersham, Dübendorf Switzerland), and subsequent exposure of the membranes to x-ray film. Analysis of quantification of detection was performed using AIDA software.

[3] = system: CRP; conditions: cited from earlier work
[4] = system: CD40 mediated pathways; assay: CD40L induced cytokine release (IL-6, IL-8, MCP-1) from ECs, ELISA; type: cell-based, human; conditions: added to statin and CD154
Procedure: Cytokines assay. […] Experiments were performed in the presence of polymyxin B (1 μg/ml). Antibody binding was detected by adding substrate (R&D), and absorbance measured at 450 nm using a Dynatech plate reader. The amount of IL-6, IL-8 and MCP-1 detected was calculated from a standard curve prepared with the recombinant protein. Samples were assayed in duplicates.
To investigate the functional consequences of inhibition of CD40 expression by statins on Endothelial Cells activation by CD40L, secreted cytokines were analyzed such as Interleukin-6 (IL-6), interleukin-8 (IL-8), macrophages chemoattractant protein-1 (MCP-1). Addition of an anti-CD40LmAb blocked the induction of all three secreted cytokines in response to CD40 ligation.

Row | Compound | potency as MHC class II repressor [1] | effect on IFN-γ induced CD40 in the presence of L-mevalonate [2] | IFN-γ induction of CD40, dose dependence ([2]; IFN-γ 500 U/ml 24 hrs) | concentration range over which effect on CD40 was observed ([2]; IFN-γ 500 U/ml 24 hrs) [µM] | CD40 expression with co-treatment by IFN-γ and statin [2] | CD40 expression, treatment with statin alone ([2]; without IFN-γ) | CRP levels ([3]; 80 mg/day) | effect on biological markers of inflammation ([3]; in vivo) | reversal of statin effect on cytokine secretion [4]
1 | CC(C)c1c(C(=O)Nc2ccccc2)c(-c2ccccc2)c(-c2ccc(F)cc2)n1CC[C@@H](O)C[C@@H](O)CC(=O)O [Atorvastatin] | most powerful MHC class II repressor | markedly reduced | repressed this induction of CD40 in a dose-dependant manner | 0.08 to 5 | decreased | had an effect on CD40 expression | decrease in CRP levels | dose-dependent | 
2 | CC[C@H](C)C(=O)O[C@H]1C[C@@H](C)C=C2C=C[C@H](C)[C@H](CC[C@@H]3C[C@@H](O)CC(=O)O3)[C@H]21 [lovastatin, Lovastatin] |  |  |  |  | decreased |  |  |  | 
3 | L-mevalonate |  |  |  |  |  |  |  |  | significantly reverses the process
